Reference: patent publication EP1984353B1, “AURORA KINASE MODULATORS AND METHOD OF USE” (Amgen, Inc, priority 2006, dated 2007)
Where two headings read alike, the source gives them in different places.

Key:
[1] = tested on: phosphorylation of Histone H3; assay: HeLa cell 1-hour phospho-histone assay; format: cell-based; settings: HeLa cells
Procedure: HeLa cell 1-hour phospho-histone assay
The purpose of this assay is to test the inhibitory effect of Aurora compounds with respect to phosphorylation of Histone H3 in the cellular context. HeLa cells (9x10^4/well) are plated in black 96-well flat-bottom tissue culture plates and incubated for 40 hours prior to compound addition. Compounds are serially diluted in DMSO, followed by dilution into MEM containing […] HEPES; 10ul/well of diluted compounds are added to cells (0.5% DMSO final). Cells are incubated for 1 hour at 37 °C in 5% CO2. Cells are then fixed with 3.7% formaldehyde for 10 minutes, washed with wash buffer (1% goat serum and 0.1% Tween 20 in PBS), then permeabilized with 0.5% Triton X in PBS for 15 minutes. After washing with wash buffer, cells are incubated with primary antibody (Upstate #06-507 anti-phospho-histone (Ser 10) antibody (pHH3) for 1 hour at 10ug/ml. After 2 washes with wash buffer, cells are incubated with secondary antibody (Molecular Probes #A11034 goat anti-rabbit Alexa-488 for 1 hour at 1ug/ml + Hoechst 33342 nuclear dye at 1ug/ml (Molecular Probes). Cells are washed 2 times with wash buffer, and buffer replaced with PBS. Plates are scanned on the Cellomics Array Scan (6 fields, ~2000 cells/well) and % of cells that are pHH3 positive were calculated using the Cellomics algorithm.

AuroraB = molecular target: T1, AuroraB (Homo sapiens, UniProt Q96GD4); assay: AuroraB Homogeneous Time Resolved Fluorescent (HTRF) kinase assay; format: biochemical
T1 construct: 20 µL of AuroraB FL His; His
How it was run: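 HTRF read-out: after EDTA stop and ~60 min with europium anti-phospho-H3 antibody and streptavidin-APC, 655/615 nm ratio reports phosphorylation. Reaction: 400 pM AuroraB FL His, 23 µM ATP (at Km(app)), 0.1 µM biotin-Histone H3 peptide, 50 mM HEPES pH 7.5, MgCl/MnCl, ~90 min.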

AuroraA-TPX2 = molecular target: T2, AuroraA-TPX2 (Homo sapiens, UniProt O14965); assay: AuroraA-TPX2 Homogeneous Time Resolved Fluorescent (HTRF) kinase assay; format: biochemical; settings: average, read-out: AurA/TP X2_ IC50_IP (Avg)
T2 construct: 20 µL of AuroraA-TPX2 KD GST; GST
T2 sequence (O14965 133-383 limits assumed): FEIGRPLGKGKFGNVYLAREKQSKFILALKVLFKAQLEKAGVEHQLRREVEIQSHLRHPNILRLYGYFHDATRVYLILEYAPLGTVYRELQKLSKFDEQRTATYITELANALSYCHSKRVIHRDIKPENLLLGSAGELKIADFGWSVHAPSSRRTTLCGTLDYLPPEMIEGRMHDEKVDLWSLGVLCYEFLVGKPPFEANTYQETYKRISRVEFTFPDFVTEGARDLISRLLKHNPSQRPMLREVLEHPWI
T2 sequence (Q9ULW0 1-43 partner limits assumed): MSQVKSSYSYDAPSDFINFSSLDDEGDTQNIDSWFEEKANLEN
How it was run: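 HTRF read-out: europium anti-phosphoPLK antibody (0.02 nM) plus streptavidin-APC detect phosphorylated biotin-PLK after EDTA stop and overnight equilibration. Kinase step runs about 120 min with Aurora-A/TPX2, ATP and roughly 1 µM PLK peptide at pH 7.5 HEPES buffer with Mg2+ and DTT.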

[2] = Homo sapiens, HeLa, 1 h, 1 hour incubation, % of cells pHH3 positive, read-out: inhibitory activity (EC50) in the phospho-histone H3 assay
[3] = average, given as class symbols, read-out: AurB_ _IC50_IP (Avg)
[4] = Homo sapiens, HeLa, 1 h, 1 hour, average, given as class symbols, read-out: pHH3 EC50_IP (Avg)
[5] = given as numbers, unit inferred
[6] = average, given as numbers, unit inferred, read-out: AurB_ _IC50_IP (Avg)
[7] = Homo sapiens, HeLa, 1 h, 1 hour, average, given as numbers, unit inferred, read-out: pHH3 EC50_IP (Avg)

T1 sequence (Q96GD4 whole entry): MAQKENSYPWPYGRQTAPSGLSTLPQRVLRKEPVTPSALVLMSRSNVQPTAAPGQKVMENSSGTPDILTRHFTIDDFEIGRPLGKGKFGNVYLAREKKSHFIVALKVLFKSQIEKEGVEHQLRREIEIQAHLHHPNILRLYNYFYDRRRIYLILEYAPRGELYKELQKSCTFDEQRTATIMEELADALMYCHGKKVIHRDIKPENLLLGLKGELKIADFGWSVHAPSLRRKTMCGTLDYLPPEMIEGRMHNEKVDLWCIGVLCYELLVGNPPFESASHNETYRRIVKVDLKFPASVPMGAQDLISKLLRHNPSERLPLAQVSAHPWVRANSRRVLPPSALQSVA

Molecule Nc1nccc(-c2cccnc2Oc2ccc(Nc3nnc(-c4ccsc4)c4ccccc34)cc2)n1 [Example 90, N-(4-((3-(2-amino-4-pyrimidinyl)-2-pyridinyl)oxy)phenyl)-4-(3-thienyl)-1-phthalazinamine] has an EC50 [1, 2] of under 1000 nM.

CNc1nccc(-c2cccnc2Oc2ccc(Nc3nnc(-c4ccsc4)c4ccccc34)cn2)n1 [Example 92, N-(6-((3-(2-(methylamino)-4-pyrimidinyl)-2-pyridinyl)oxy)-3-pyridinyl)-4-(3-thienyl)-1-phthalazinamine] was tested, and the EC50 [1, 2] was under 1000 nM.

In the case of CNc1nccc(-c2cccnc2Oc2ccc(Nc3nnc(-c4ccccc4)c4c3CCCC4)cn2)n1 [Example 105, N-(6-((3-(2-(methylamino)-4-pyrimidinyl)-2-pyridinyl)oxy)-3-pyridinyl)-4-phenyl-5,6,7,8-tetrahydro-1-phthalazinamine], the EC50 [1, 2] is reported as under 1000 nM.

With CNc1nccc(-c2cccnc2Oc2ccc(Nc3nnc(-c4ccccc4)c4c3C3CCC4CC3)cc2)n1 [Example 107, N-(4-((3-(2-(methylamino)-4-pyrimidinyl)-2-pyridinyl)oxy)phenyl)-6-phenyl-4,5-diazatricyclo [6.2.2.0-2,7-]dodeca-2,4,6-trien-3-amine] the EC50 ([1]; 1 hour incubation, % of cells pHH3 positive, read-out: inhibitory activity (EC50) in the phospho-histone H3 assay) was under 1000 nM.

Work on CNc1nccc(-c2cccnc2Oc2ccc(Nc3nnc(-c4ccccc4)c4c3CCC4)cn2)n1 [Example 108, N-(6-((3-(2-(methylamino)-4-pyrimidinyl)-2-pyridinyl)oxy)-3-pyridinyl)-4-phenyl-6,7-dihydro-5H-cyclopenta[d]pyridazin-1-amine] yielded an EC50 [1, 2] of under 1000 nM.

Cc1cc(-c2ccccc2)nnc1Nc1ccc(Oc2ncccc2-c2ccnc(N)n2)cc1 [Example 119, N-(4-((3-(2-amino-4-pyrimidinyl)-2-pyridinyl)oxy)phenyl)-4-methyl-6-phenyl-3-pyridazinamine] gave an EC50 [1, 2] of under 1000 nM.

CNc1cc(-c2cccnc2Oc2ccc(Nc3nnc(-c4ccccc4)c4c3CCC4)cn2)ccn1 [Example 120, N-methyl-2-((5-((4-phenyl-6,7-dihydro-5H-cyclopenta[d]pyridazin-1-yl)amino)-2-pyridinyl)oxy)-3,4'-bipyridin-2'-amine] showed an EC50 [1, 2] of under 1000 nM.

Nc1[nH]ncc1-c1cccnc1Oc1ccc(Nc2nnc(-c3ccccc3)c3ccccc23)cc1 [Example 238, N-(4-((3-(5-amino-1H-pyrazol-4-yl)-2-pyridinyl)oxy)phenyl)-4-phenyl-1-phthalazinamine] was tested, and the IC50 (AuroraB; read-out: inhibitory activity (IC50) in the Aurora kinase B HTRF assay) was under 500 nM and the EC50 [1, 2] was under 1000 nM.

Molecule Nc1nccc(-c2cccnc2Oc2ccc(Nc3nnc(-c4ccccc4)cc3-c3ccccc3)cc2)n1 [compound 246, N-(4-((3-(2-amino-4-pyrimidinyl)-2-pyridinyl)oxy)phenyl)-4,6-diphenyl-3-pyridazinamine] has an IC50 (AuroraA-TPX2; given as class symbols) of 500 to 2500 nM, an IC50 (AuroraB; [3]) of at most 100 nM and an EC50 [1, 4] of 500 to 2500 nM.

For Nc1nccc(-c2cccnc2Oc2ccc(Nc3nnc(-c4ccc(CCO)cc4)c4ccccc34)cc2)n1 [compound 247, 2-(4-(4-((4-((3-(2-amino-4-pyrimidinyl)-2-pyridinyl)oxy)phenyl)amino)-1-phthalazinyl)phenyl)ethanol], the IC50 (AuroraA-TPX2; [5]) was 19.8 nM, the IC50 (AuroraB; [6]) was 4.2 nM and the EC50 [1, 7] was 335 nM.

With CNc1nccc(-c2cccnc2Oc2ccc(Nc3nnc(-c4ccccc4)c4ccccc34)nc2)n1 [compound 248, N-(5-((3-(2-(methylamino)-4-pyrimidinyl)-2-pyridinyl)oxy)-2-pyridinyl)-4-phenyl-1-phthalazinamine] the IC50 (AuroraA-TPX2; [5]) was 149 nM, the IC50 (AuroraB; [6]) was 11 nM and the EC50 [1, 7] was 465 nM.

Work on Nc1nccc(-c2cccnc2Oc2ccc(Nc3nnc(-c4ccc(CO)cc4)c4ccccc34)cc2)n1 [compound 249, (4-(4-((4-((3-(2-amino-4-pyrimidinyl)-2-pyridinyl)oxy)phenyl)amino)-1-phthalazinyl)phenyl)methanol] yielded an IC50 (AuroraA-TPX2; given as class symbols) of at most 100 nM, an IC50 (AuroraB; [3]) of at most 100 nM and an EC50 [1, 4] of 100 to 500 nM.

Work on Cc1cc(Br)cnc1Nc1ccc(Oc2ncccc2-c2ccncc2)cc1 [compound 264, N-(4-(3,4'-bipyridin-2-yloxy)phenyl)-5-bromo-3-methyl-2-pyridinamine] yielded an IC50 (AuroraB; [3]) of 500 to 2500 nM and an EC50 [1, 4] of 500 to 2500 nM.

Work on Cc1csc(-c2nnc(Nc3ccc(Oc4ncccc4-c4ccnc(N)n4)cc3)c3ccccc23)c1 [compound 331, N-(4-((3-(2-amino-4-pyrimidinyl)-2-pyridinyl)oxy)phenyl)-4-(4-methyl-2-thienyl)-1-phthalazinamine] yielded an IC50 (AuroraB; [3]) of at most 100 nM and an EC50 [1, 4] of at most 100 nM.

For Nc1nccc(-c2cccnc2Oc2ccc(Nc3nnc(-c4ccccc4)c4ccccc34)cn2)n1 [compound 415, N-(6-((3-(2-amino-4-pyrimidinyl)-2-pyridinyl)oxy)-3-pyridinyl)-4-phenyl-1-phthalazinamine], the EC50 [1, 4] was at most 100 nM.

Work on Cc1csc(-c2nnc(Nc3ccc(Oc4ncccc4-c4ccnc(N)c4)cc3)c3ccccc23)c1 [compound 416, 2-((4-((4-(4-methyl-2-thienyl)-1-phthalazinyl)amino)phenyl)oxy)-3,4'-bipyridin-2'-amine] yielded an EC50 [1, 7] of 134 nM.

Cc1cc(-c2ccccc2)nnc1Nc1ccc(Oc2ncccc2-c2ccnc(N)c2)cc1 [compound 418, 2-((4-((4-methyl-6-phenyl-3-pyridazinyl)amino)phenyl)oxy)-3,4'-bipyridin-2'-amine] gave an EC50 [1, 4] of 100 to 500 nM.

Molecule Cc1csc(-c2cc(C)c(Nc3ccc(Oc4ncccc4-c4ccnc(N)c4)cc3)nn2)c1 [compound 419, 2-((4-((4-methyl-6-(4-methyl-2-thienyl)-3-pyridazinyl)amino)phenyl)oxy)-3,4'-bipyridin-2'-amine] has an EC50 [1, 4] of 100 to 500 nM.

For CCc1cc(-c2ccccc2)nnc1Nc1ccc(Oc2ncccc2-c2ccnc(N)c2)cc1 [compound 420, 2-((4-((4-ethyl-6-phenyl-3-pyridazinyl)amino)phenyl)oxy)-3,4'-bipyridin-2'-amine], the EC50 [1, 7] was 314 nM.

Work on O=C(O)CCCNc1nccc(-c2cccnc2Oc2ccc(Nc3nnc(-c4ccccc4)c4ccccc34)cc2)n1 [compound 427, 4-((4-(2-((4-((4-phenyl-1-phthalazinyl)amino)phenyl)oxy)-3-pyridinyl)-2-pyrimidinyl)amino)butanoic acid] yielded an EC50 [1, 4] of 500 to 2500 nM.

Cc1csc(-c2cc(C)c(Nc3ccc(Oc4ncccc4-c4ccncc4)cc3)nn2)c1 [compound 428, N-(4-(3,4'-bipyridin-2-yloxy)phenyl)-4-methyl-6-(4-methyl-2-thienyl)-3-pyridazinamine] gave an EC50 [1, 4] of 500 to 2500 nM.

Molecule Cc1cc(-c2ccccc2)nnc1Nc1ccc(Oc2ncccc2-c2ccnc(NCCCO)n2)cc1 [compound 429, 3-((4-(2-((4-((4-methyl-6-phenyl-3-pyridazinyl)amino)phenyl)oxy)-3-pyridinyl)-2-pyrimidinyl)amino)-1-propanol] has an EC50 [1, 4] of 100 to 500 nM.

Molecule Cc1cc(-c2ccccc2)nnc1Nc1ccc(Oc2ncccc2-c2ccnc(NCCCC(=O)O)n2)cc1 [compound 430, 4-((4-(2-((4-((4-methyl-6-phenyl-3-pyridazinyl)amino)phenyl)oxy)-3-pyridinyl)-2-pyrimidinyl)amino)butanoic acid] has an EC50 [1, 4] of 500 to 2500 nM.

Work on Nc1cc(-c2cccnc2Oc2ccc(Nc3nnc(-c4ccccc4)c4ccccc34)cn2)ccn1 [compound 431, 2-((5-((4-phenyl-l-phthalazinyl)amino)-2-pyridinyl)oxy)-3,4'-bipyridin-2'-amine] yielded an EC50 [1, 4] of at most 100 nM.

Molecule O=c1cc(-c2cccnc2Oc2ccc(Nc3nnc(-c4ccccc4)c4ccccc34)cc2)cc[nH]1 [compound 432, 2-((4-((4-phenyl-1-phthalazinyl)amino)phenyl)oxy)-3,4'-bipyridin-2'(1'H)-one] has an EC50 [1, 4] of 500 to 2500 nM.

Work on Cc1csc(-c2cc(C)c(Nc3ccc(Oc4ncccc4-c4ccnc(N)c4)cc3)nn2)n1 [compound 434, 2-((4-((4-methyl-6-(4-methyl-1,3-thiazol-2-yl)-3-pyridazinyl)amino)phenyl)oxy)-3,4'-bipyridin-2'-amine] yielded an EC50 [1, 7] of 1000 nM.
